Experiments:
[1] = Maximum tolerated dose study in mice
RIPK3 = RIPK3 (Homo sapiens, UniProt Q9Y572); experiment: Kinase IC50 assay (Eurofins); type: biochemical
Description: (§1) In vitro kinase activity assays were conducted through the Kinase Profiling Services provided by Eurofins (Eurofins, France). The protocol for the RIPK1 assay is briefly described as follows (Protocols for other kinases are very similar and can be found in http://www.eurofins.com/pharmadiscovery). RIPK1 kinase was incubated with the test compound in assay buffer containing 8 mM MOPS (pH 7.0), 0.2 mM EDTA, 250 μM […], 10 mM magnesium acetate, and 10 μM [γ-33P]-ATP for 15 min at room temperature. The reaction was initiated by the addition of the Mg/ATP mixture. After incubation for 40 min at room temperature, and the reaction was stopped by the addition of 3% phosphoric acid. A 10 μL portion of the reaction mixture was then spotted onto a P30 filter mat and washed four times for 4 min in 0.425% phosphoric acid and once in methanol prior to drying and scintillation counting.

RIPK4 = RIPK4 (Homo sapiens, UniProt P57078); experiment: Kinase IC50 assay (Eurofins); type: biochemical
RIPK4, sequence (P57078 whole entry): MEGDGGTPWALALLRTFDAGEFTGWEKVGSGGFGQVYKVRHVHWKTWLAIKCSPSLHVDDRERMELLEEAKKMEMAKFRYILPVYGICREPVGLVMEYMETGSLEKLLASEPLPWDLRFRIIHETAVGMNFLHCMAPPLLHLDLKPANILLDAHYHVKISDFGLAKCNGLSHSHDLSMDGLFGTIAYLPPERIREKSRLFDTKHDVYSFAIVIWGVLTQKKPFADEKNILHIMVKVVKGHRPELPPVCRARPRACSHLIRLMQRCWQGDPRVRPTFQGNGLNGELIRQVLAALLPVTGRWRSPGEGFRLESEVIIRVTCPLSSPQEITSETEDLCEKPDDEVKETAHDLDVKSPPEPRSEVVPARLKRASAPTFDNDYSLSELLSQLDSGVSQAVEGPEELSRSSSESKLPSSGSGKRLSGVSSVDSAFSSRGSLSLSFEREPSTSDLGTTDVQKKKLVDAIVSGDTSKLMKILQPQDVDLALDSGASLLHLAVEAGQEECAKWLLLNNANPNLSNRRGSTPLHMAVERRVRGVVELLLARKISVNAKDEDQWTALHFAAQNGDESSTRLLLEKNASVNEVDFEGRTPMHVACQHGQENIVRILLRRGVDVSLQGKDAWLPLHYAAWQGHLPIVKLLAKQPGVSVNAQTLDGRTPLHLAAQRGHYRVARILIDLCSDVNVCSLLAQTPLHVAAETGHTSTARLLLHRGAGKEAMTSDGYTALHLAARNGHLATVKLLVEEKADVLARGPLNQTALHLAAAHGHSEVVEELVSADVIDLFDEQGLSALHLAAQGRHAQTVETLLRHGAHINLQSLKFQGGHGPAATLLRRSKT
Description: as §1

[2] = test system: phosphorylation of RIPK1, RIPK3, and MLKL; experiment: Western blot of necroptotic signaling proteins in HT29 cells; type: cell-based, human; settings: HT29, TSZ
Description: Cell pellets were collected and resuspended in RIPA lysis buffer (Beyotime), to which phenylmethylsulfonyl fluoride, a […], and a phosphatase inhibitor cocktail (Sigma) had been added. […] The supernatants were collected and subjected to western blot analysis.
The cell proteins or tissue proteins were separated in a polyacrylamide gel and transferred to a methanol-activated polyvinylidene fluoride membrane. The membrane was blocked for 2 h in Tris-buffered saline plus Tween-20 containing 5% milk and then immunoblotted sequentially with primary and secondary antibodies. Detection was performed with an ECL chemiluminescence kit (Abbkine). […]

L929 cells = experiment: TZ-induced L929 cell necroptosis model (CCK8); type: cell-based; settings: Mus musculus
Description: (§2) Cell necroptosis protection assays were performed in 96-well cell culture plates. Cells were plated in each well and cultured at 37 °C overnight. […] The cell survival rate was determined using a CCK8 cell viability assay kit and CLARIOstar (v5.61). […] All experiments were performed at least two times, and each EC50 value was expressed as mean ± standard deviation (SD).

RIPK1 = molecular target: T1, RIPK1 (Homo sapiens, UniProt Q13546); experiment: RIPK1 kinase assay, ADP-Glo assay; type: biochemical
T1 sequence (Q13546 1-671): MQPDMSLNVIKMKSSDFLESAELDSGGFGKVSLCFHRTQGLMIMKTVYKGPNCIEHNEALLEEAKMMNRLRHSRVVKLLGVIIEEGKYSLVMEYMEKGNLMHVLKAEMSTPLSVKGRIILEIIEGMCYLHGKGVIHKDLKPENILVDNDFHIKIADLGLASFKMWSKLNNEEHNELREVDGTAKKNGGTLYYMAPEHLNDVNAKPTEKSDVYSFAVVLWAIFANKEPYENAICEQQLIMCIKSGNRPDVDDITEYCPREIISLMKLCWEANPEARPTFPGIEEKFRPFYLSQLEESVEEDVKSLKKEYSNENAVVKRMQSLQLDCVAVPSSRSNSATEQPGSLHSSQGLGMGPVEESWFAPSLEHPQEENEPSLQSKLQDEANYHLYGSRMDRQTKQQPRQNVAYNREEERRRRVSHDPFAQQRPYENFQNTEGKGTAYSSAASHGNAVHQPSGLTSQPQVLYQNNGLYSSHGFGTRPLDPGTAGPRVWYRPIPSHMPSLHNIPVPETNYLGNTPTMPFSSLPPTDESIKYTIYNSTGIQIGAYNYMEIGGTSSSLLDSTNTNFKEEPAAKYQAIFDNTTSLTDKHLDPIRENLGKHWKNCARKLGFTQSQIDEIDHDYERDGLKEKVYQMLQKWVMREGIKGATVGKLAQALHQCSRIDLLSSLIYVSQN

pRIPK1, pRIPK3, pMLKL = experiment: DSS-induced IBD mouse model: colon western blot; type: in vivo, C57BL/6 female mice; settings: 40 mg/kg i.p., day 7
Description: The liver in the SIRS model and the colon in the IBD model were harvested, homogenated and sonicated in RIPA lysis buffer.
The cell proteins or tissue proteins were separated in a polyacrylamide gel and transferred to a methanol-activated polyvinylidene fluoride membrane. The membrane was blocked for 2 h in Tris-buffered saline plus Tween-20 containing 5% milk and then immunoblotted sequentially with primary and secondary antibodies. Detection was performed with an ECL chemiluminescence kit (Abbkine). The antibodies used were human RIPK1 antibody (R&D, 334640, 1:1000), mouse RIPK1 antibody (Affinity, DF2642, 1:1000), human phospho-RIP (Ser166) rabbit mAb (Cell Signaling Technologies, 65746, 1:1000), mouse phospho-RIP (Ser321) rabbit mAb (Cell Signaling Technologies, 38662, 1:1000), human RIPK3 (B-2) antibody (Santa Cruz, sc-374639, 1:250), mouse RIPK3 antibody (Abcam, ab62344, 1:1000), human anti-RIP3 (phospho S227) antibody (Abcam, ab209384, 1:2000), mouse anti-RIP3 (phospho T231 + S232) antibody (Abcam, ab205421, 1:500), anti-MLKL (58–70) antibody (Sigma, M6697, 1:250), human anti-MLKL (phospho S358) antibody (Abcam, ab187091, 1:1000), mouse anti-MLKL (phospho S345) antibody (Abcam, ab196436, 1:1000), and β-actin (Proteintech, 66009-1-Ig, 1:1000).

J774A.1 cells = experiment: TSZ-induced J774A.1 cell necroptosis model (CCK8); type: cell-based; settings: Mus musculus, J774.A1
Description: as §2

RIPK3, sequence (Q9Y572 whole entry): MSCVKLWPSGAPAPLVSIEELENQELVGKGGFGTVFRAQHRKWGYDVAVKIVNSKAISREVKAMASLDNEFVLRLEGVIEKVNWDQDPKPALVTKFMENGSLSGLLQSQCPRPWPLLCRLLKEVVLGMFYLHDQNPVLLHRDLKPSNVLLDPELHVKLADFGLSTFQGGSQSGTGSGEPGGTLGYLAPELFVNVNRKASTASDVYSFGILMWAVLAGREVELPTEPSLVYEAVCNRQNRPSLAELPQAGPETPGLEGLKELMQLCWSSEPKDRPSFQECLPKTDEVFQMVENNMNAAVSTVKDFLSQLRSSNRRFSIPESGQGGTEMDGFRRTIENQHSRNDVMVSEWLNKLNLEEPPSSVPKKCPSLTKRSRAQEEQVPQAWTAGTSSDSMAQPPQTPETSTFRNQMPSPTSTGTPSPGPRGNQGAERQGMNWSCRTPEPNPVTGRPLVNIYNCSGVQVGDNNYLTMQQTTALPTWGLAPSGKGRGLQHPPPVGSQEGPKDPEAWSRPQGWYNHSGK

CC(C)C(=O)Nc1nc2cc(-c3ccc4c(c3)c(C(=O)NC(C)c3ccccc3)cn4C)ccn2n1 (stereo not drawn) [RI-962]
impact on mouse organs (H&E staining) ([1]; 250mg/kg): no obvious impact on different mouse organs | tolerability observations ([1]; doses up to 250 mg/kg): no observed weight loss and no other side effects | IC50 (RIPK3): > 10000 nM | IC50 (RIPK4): > 10000 nM | phosphorylation of RIPK1, RIPK3 and MLKL in intact cells [2]: markedly inhibited the phosphorylation of RIPK1 and its downstream signaling proteins RIPK3 and MLKL in a dose-dependent manner | viability at 56 pM (L929 cells; L929, 0.000056 μM): 19.1% | viability at 0.000169 µM (L929 cells; L929, 0.000169 μM): 22.9% | viability at 0.000508 µM (L929 cells; L929, 0.000508 μM): 24.8% | viability at 0.001524 µM (L929 cells; L929, 0.001524 μM): 35.2% | viability at 0.004572 µM (L929 cells; L929, 0.004572 μM): 62.2% | viability at 0.013717 µM (L929 cells; L929, 0.013717 μM): 83.1% | viability at 0.041152 µM (L929 cells; L929, 0.041152 μM): 89.4% | viability at 0.123457 µM (L929 cells; L929, 0.123457 μM): 105% | viability at 0.37037 µM (L929 cells; L929, 0.370370 μM): 98.5% | viability at 1.11111 µM (L929 cells; L929, 1.111111 μM): 103% | viability at 3.33333 µM (L929 cells; L929, 3.333333 μM): 99.1% | viability at 10 µM (L929 cells; L929, 10.000000 μM): 91.6% | EC50 (L929 cells; L929 treated with TZ, 24 h): 4.2 nM | inhibition at 0.000152416 µM (RIPK1; 0.152416 nM): -7.04% | inhibition at 0.000457247 µM (RIPK1; 0.457247 nM): -2.09% | inhibition at 0.00137174 µM (RIPK1; 1.371742 nM): 5.59% | inhibition at 0.00411523 µM (RIPK1; 4.115226 nM): 34.1% | inhibition at 0.0123457 µM (RIPK1; 12.345679 nM): 80% | inhibition at 0.037037 µM (RIPK1; 37.037037 nM): 94% | inhibition at 0.111111 µM (RIPK1; 111.111111 nM): 95.3% | inhibition at 0.333333 µM (RIPK1; 333.333333 nM): 96.3% | inhibition at 1 µM (RIPK1; 1000.000000 nM): 98.1% | inhibition at 3 µM (RIPK1; 3000.000000 nM): 99.3% | IC50 (RIPK1; ADP-Glo assay): 5.9 nM | levels of pRIPK1, pRIPK3, and pMLKL in the colon (pRIPK1, pRIPK3, pMLKL): reduced the levels of pRIPK1, pRIPK3, and pMLKL proteins | viability at 56 pM (J774A.1 cells; 0.000056 μM): 1.06% | viability at 0.000169 µM (J774A.1 cells; 0.000169 μM): 1.51% | viability at 0.000508 µM (J774A.1 cells; 0.000508 μM): 3.42% | viability at 0.001524 µM (J774A.1 cells; 0.001524 μM): 11.4% | viability at 0.004572 µM (J774A.1 cells; 0.004572 μM): 24.7% | viability at 0.013717 µM (J774A.1 cells; 0.013717 μM): 48.7% | viability at 0.041152 µM (J774A.1 cells; 0.041152 μM): 85.3% | viability at 0.123457 µM (J774A.1 cells; 0.123457 μM): 88.9% | viability at 0.37037 µM (J774A.1 cells; 0.370370 μM): 93% | viability at 1.11111 µM (J774A.1 cells; 1.111111 μM): 98.3% | viability at 3.33333 µM (J774A.1 cells; 3.333333 μM): 91.5% | EC50 (J774A.1 cells; J774A.1 treated with TSZ, 24 h): 11.4 nM

From PMC9653409, “Generative deep learning enables the discovery of a potent and selective RIPK1 inhibitor” (Nature Communications, 2022)
